From ChEMBL document CHEMBL4371025, “Discovery and evaluation of novel FAAH inhibitors in neuropathic pain model” (Bioorg Med Chem Lett, 2019)
Activity calls are given as the source filed them. The rule behind the calls is not given here.

Legend:
[1] = Intrinsic metabolic stability in human liver microsomes assessed as metabolic turnover rate per mg protein at 1 uM preincubated for 5 mins followed by NADPH cofactor addition and measured after 30 mins by LC-MS/MS analysis; assay type: ADME, Microsome; details: 0.5 h
[2] = Intrinsic metabolic stability in rat liver microsomes assessed as metabolic turnover over per mg protein at 1 uM preincubated for 5 mins followed by NADPH cofactor addition and measured after 30 mins by LC-MS/MS analysis; assay type: ADME, Microsome; details: 0.5 h
[3] = biological target: T1, Fatty-acid amide hydrolase 1 (Rattus norvegicus, UniProt P97612); experiment: Inhibition of rat FFAH expressed in Escherichia coli using AAMCA as substrate incubated for 1 min measured for 50 mins by fluorescence assay
T1 sequence (P97612 whole entry): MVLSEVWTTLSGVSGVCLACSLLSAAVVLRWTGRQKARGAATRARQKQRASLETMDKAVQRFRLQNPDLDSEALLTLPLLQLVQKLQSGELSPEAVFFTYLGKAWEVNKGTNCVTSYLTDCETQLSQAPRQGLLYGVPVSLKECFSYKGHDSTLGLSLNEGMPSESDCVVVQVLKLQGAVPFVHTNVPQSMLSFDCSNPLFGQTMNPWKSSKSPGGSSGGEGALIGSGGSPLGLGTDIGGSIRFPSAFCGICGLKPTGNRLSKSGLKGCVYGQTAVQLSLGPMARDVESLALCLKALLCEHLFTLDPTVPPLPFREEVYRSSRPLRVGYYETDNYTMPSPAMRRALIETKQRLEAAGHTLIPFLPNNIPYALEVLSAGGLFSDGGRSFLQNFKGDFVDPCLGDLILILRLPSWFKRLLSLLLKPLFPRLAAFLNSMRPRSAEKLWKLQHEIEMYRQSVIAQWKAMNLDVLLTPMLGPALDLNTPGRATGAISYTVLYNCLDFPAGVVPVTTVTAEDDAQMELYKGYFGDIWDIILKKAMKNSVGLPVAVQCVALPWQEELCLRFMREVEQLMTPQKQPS

[4] = biological target: T2, Fatty-acid amide hydrolase 1 (Homo sapiens) (UniProt O00519); experiment: Reversible inhibition of human transmembrane domain deficient FFAH expressed in Escherichia coli assessed as residual activity at 10 times IC50 using AAMCA as substrate preincubated for 1 hr followed by substrate addition and subsequent 10 fold compound dilution by fluorescence assay relative to control
T2 sequence (whole entry): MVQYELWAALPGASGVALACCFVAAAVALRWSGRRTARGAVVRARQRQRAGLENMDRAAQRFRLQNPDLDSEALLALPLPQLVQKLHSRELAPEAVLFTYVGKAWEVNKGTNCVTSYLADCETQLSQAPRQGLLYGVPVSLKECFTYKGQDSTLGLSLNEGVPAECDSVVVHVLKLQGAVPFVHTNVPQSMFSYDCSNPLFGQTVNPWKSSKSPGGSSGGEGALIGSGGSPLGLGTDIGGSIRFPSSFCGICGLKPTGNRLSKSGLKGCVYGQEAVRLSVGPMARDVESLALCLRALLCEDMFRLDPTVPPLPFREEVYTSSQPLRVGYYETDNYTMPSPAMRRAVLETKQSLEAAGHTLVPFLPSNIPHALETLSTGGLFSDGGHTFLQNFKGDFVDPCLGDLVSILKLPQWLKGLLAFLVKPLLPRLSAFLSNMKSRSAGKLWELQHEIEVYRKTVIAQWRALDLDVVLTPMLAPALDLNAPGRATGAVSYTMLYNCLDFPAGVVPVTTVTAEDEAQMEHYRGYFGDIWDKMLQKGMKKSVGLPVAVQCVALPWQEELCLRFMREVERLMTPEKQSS

Rattus norvegicus [5] = experiment: Antihyperalgesic activity in Sprague-Dawley rat model of cisplatin-induced peripheral neuropathy assessed as increase in paw withdrawal latency at 30 mg/kg, po administered once daily via gavage for 7 days measured 4 hrs post last dose by plantar test; assay type: functional, organism-based
Rattus norvegicus [6] = experiment: Antihyperalgesic activity in Sprague-Dawley rat model of cisplatin-induced peripheral neuropathy assessed as increase in paw withdrawal latency at 3 mg/kg, po administered as single dose via gavage measured 4 hrs post dose by plantar test; assay type: functional, organism-based
Rattus norvegicus [7] = experiment: Antihyperalgesic activity in Sprague-Dawley rat model of cisplatin-induced peripheral neuropathy assessed as increase in paw withdrawal latency at 30 mg/kg, po administered once daily via gavage for 6 days measured 24 hrs post last dose by plantar test; assay type: functional, organism-based
Rattus norvegicus [8] = experiment: Antihyperalgesic activity in Sprague-Dawley rat model of cisplatin-induced peripheral neuropathy assessed as increase in paw withdrawal latency at 30 mg/kg, po administered as single dose via gavage measured 4 hrs post dose by plantar test; assay type: functional, organism-based
[9] = biological target: T3, Fatty-acid amide hydrolase 1 (Rattus norvegicus) (UniProt P97612); experiment: Inhibition of rat FFAH expressed in Escherichia coli at 10 uM using AAMCA as substrate incubated for 1 min measured for 50 mins by fluorescence assay relative to control
T3 sequence (whole entry): T1 sequence (P97612 whole entry)

[10] = biological target: T4, Fatty-acid amide hydrolase 1 (Homo sapiens, UniProt O00519); experiment: Inhibition of human transmembrane domain deficient FFAH expressed in Escherichia coli using AAMCA as substrate incubated for 1 min measured for 50 mins by fluorescence assay
T4 sequence (O00519 whole entry): T2 sequence (whole entry)

Rattus norvegicus [11] = experiment: Antihyperalgesic activity in Sprague-Dawley rat model of cisplatin-induced peripheral neuropathy assessed as increase in paw withdrawal latency at 10 mg/kg, po administered once daily via gavage for 7 days measured 4 hrs post last dose by plantar test; assay type: functional, organism-based
Rattus norvegicus [12] = experiment: Antihyperalgesic activity in Sprague-Dawley rat model of cisplatin-induced peripheral neuropathy assessed as increase in paw withdrawal latency at 40 mg/kg, po administered once daily via gavage for 7 days measured 4 hrs post last dose by plantar test; assay type: functional, organism-based

| SMILES | Drug metabolism [1] [nmol/min/mg] | Drug metabolism [2] [nmol/min/mg] | IC50 [3] [µM] | IC50 [10] [µM] | further results |
| --- | --- | --- | --- | --- | --- |
| Nc1ccc(C(=O)NC2CCC(=Cc3cccc(Oc4ccc(C(F)(F)F)cn4)c3)CC2)cn1 (racemic) | 0.07 | 0.05 | 0.0313 | – | – |
| O=C(CCCCCCc1ccccc1)c1ncc(-c2ccccn2)o1 | – | – | – | – | Activity [4]: 30% |
| Nc1ncc(C(=O)NC2CCC(=Cc3cccc(Oc4ccc(C(F)(F)F)cn4)c3)CC2)cn1 (stereo not given) | – | – | – | – | Activity (Rattus norvegicus [5]): Active; Activity (Rattus norvegicus [6]): inactive; Activity (Rattus norvegicus [7]): Active; Activity (Rattus norvegicus [8]): Active |
| Cc1cc(C(=O)NC2CCC(=Cc3cccc(Oc4ccc(C(F)(F)F)cn4)c3)CC2)cnc1N (stereo not given) | – | – | – | – | Activity (Rattus norvegicus [5]): Active; Activity (Rattus norvegicus [6]): inactive; Activity (Rattus norvegicus [7]): Active; Activity (Rattus norvegicus [8]): Active |
| Nc1ccc(C(=O)NC2CCC(=Cc3cccc(Oc4ccc(C(F)(F)F)cn4)c3)CC2)cn1 (stereo not given) | – | – | – | – | inhibition [9]: 70% |
| O=C(NC1CCC(=Cc2cccc(Oc3ccc(C(F)(F)F)cn3)c2)CC1)c1cccnn1 (racemic) | – | – | – | 0.009 | – |
| Nc1ncc(C(=O)NC2CCC(=Cc3cccc(Oc4ccc(C(F)(F)F)cn4)c3)CC2)cn1 (racemic) | 0.03 | 0.02 | – | 0.002 | – |
| O=C(Nc1cccnn1)N1CCC(=Cc2cccc(Oc3ccc(C(F)(F)F)cn3)c2)CC1 | – | – | 0.0057 | 0.0018 | Activity (Rattus norvegicus [11]): Active |
| Cc1cc(C(=O)N[C@H]2CC/C(=C/c3cccc(Oc4ccc(C(F)(F)F)cn4)c3)CC2)cnc1N (stereo not given) | – | – | 2.3 | 0.227 | – |
| COc1cccc([C@@]2(O)CCCC[C@@H]2CN(C)C)c1 | – | – | – | – | Activity (Rattus norvegicus [12]): Active |
| O=C(NC1CCC(=Cc2cccc(Oc3ccc(C(F)(F)F)cn3)c2)CC1)c1cn[nH]c1 (racemic) | 0.04 | < 0.04 | 0.0646 | – | – |
| Nc1ncc(C(=O)N[C@H]2CC/C(=C/c3cccc(Oc4ccc(C(F)(F)F)cn4)c3)CC2)cn1 (stereo not given) | – | – | 1.5 | 0.083 | – |
| O=C(NC1CCC(=Cc2cccc(Oc3ccc(C(F)(F)F)cn3)c2)CC1)c1cncnc1 (racemic) | < 0.04 | 0.07 | – | – | – |
